# Source: publication PMC10997755, “Discovery of a small-molecule inhibitor that traps Polθ on DNA and synergizes with PARP inhibitors” (Nature Communications, 2024)
# Where “and” joins values, the source holds several entries; their conditions need not be identical. Equal values may be shown once.
# T1: Polθ-pol (Homo sapiens, UniProt O75417)
# T1 construct: purified recombinant human Polθ-pol (comprising amino acid residues 1792–2590); made in house
# T1 sequence (O75417 1792-2590): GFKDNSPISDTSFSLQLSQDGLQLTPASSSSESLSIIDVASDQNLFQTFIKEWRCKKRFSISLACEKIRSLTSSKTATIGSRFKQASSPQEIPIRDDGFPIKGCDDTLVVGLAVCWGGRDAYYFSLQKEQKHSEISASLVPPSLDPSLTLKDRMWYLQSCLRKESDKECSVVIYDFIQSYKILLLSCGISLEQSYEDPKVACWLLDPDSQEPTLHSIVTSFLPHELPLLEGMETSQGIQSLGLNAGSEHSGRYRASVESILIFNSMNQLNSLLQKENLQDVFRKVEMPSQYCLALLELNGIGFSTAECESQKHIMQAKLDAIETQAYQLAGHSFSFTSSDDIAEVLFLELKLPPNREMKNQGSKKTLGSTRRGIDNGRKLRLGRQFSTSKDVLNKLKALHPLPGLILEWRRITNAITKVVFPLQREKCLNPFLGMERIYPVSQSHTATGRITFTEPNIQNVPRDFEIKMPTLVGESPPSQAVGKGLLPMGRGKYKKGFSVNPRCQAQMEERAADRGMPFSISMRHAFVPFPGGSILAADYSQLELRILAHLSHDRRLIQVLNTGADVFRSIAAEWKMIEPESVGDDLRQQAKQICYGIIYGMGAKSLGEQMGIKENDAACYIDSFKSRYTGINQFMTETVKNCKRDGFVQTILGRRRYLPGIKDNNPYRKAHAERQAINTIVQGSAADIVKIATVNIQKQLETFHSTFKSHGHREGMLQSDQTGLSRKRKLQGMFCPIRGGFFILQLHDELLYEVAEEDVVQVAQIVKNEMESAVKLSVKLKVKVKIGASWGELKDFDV
# T2: PolθΔL (Polθ-pol, five loops replaced) (UniProt O75417 …, internal_change)
# T2 sequence: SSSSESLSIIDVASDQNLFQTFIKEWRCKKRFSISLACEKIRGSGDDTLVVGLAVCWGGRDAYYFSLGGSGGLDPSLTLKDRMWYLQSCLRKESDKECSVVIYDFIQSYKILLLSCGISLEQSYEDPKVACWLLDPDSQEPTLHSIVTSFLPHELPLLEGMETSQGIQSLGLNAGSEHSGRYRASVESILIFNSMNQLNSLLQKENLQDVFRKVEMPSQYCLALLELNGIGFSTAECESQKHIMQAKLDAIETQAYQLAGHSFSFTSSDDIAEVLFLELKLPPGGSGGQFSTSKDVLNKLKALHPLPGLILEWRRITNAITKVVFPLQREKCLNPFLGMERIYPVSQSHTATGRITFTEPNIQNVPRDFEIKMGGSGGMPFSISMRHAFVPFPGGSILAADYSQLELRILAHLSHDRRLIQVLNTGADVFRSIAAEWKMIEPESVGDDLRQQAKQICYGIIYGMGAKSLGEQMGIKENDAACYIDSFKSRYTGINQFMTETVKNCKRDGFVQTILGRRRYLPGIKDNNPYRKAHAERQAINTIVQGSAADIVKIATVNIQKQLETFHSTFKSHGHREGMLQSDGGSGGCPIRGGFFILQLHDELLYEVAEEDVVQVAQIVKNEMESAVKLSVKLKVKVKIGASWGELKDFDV
# T3: Polθ-pol (human, UniProt O75417 1792-2590)
# T3 sequence: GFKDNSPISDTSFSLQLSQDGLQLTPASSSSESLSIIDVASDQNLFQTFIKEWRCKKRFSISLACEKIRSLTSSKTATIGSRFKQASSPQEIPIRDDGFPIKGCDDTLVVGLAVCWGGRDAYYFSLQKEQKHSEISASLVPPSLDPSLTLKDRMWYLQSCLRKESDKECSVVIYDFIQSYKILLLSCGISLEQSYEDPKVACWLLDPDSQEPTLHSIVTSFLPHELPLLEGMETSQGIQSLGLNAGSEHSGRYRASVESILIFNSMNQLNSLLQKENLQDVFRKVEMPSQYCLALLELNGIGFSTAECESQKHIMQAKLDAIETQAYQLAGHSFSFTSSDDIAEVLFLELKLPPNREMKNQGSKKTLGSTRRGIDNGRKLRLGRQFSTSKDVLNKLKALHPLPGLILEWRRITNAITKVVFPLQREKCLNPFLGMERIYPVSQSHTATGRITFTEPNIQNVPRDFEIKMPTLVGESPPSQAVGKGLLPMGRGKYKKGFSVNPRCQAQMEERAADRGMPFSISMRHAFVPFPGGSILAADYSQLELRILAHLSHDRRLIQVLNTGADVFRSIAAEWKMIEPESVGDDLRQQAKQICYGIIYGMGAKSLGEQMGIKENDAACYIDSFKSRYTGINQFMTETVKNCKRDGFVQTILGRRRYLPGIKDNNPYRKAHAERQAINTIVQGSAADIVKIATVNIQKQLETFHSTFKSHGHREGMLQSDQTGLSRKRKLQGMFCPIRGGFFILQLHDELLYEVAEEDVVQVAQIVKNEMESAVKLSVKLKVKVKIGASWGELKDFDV
# How the values were obtained:
# [1] = Metabolic stability in liver microsomes; format: in vitro ADME; conditions: read-out: t1/2 liver microsomes
# [2] = target: T1, Polθ-pol; experiment: Cy5 fluorescence Polθ-pol DNA synthesis (strand displacement) IC50 assay; format: biochemical; conditions: Polθ-pol DNA synthesis, Cy5 fluorescence
# Procedure: The following Cy5 fluorescence assay was used to measure the ability of compounds to inhibit Polθ-pol in vitro. The fluorescent based assay was performed as follows: 60 nM of the pre-annealed primer-template containing a 5’ Cy5 fluorophore conjugated template strand (RP486-Cy5), a downstream complementary oligo conjugated with a 3’ Iowa BlackReg Dark quencher (RP343BHQRQ) and a primer strand (RP469D) was mixed with 50 uM 2'-deoxyribonucleoside triphosphates (dNTPs), 0.1 mg/mL Bovine serum albumin (BSA), 0.01% NP-40, 10% glycerol, 1 mM dithiothreitol (DTT), 10 mM MgCl2, 25 mM TrisHCl pH 7.8 in the presence of 2.5% DMSO with or without various concentrations (7-point dilution series) of Polθ-pol small-molecule inhibitors at 37 °C in a volume of 40 μL. The reactions were initiated by the addition of 5 nM of purified recombinant human Polθ-pol (comprising amino acid residues 1792–2590). The reactions were terminated by the addition of 20 mM EDTA after 18 min, and the Cy5 fluorescence intensity was measured using a CLARIOstar (BMG Labtech) plate reader. Reactions were performed in triplicate and the % inhibition at each concentration of the respective compound of Formula I was based on the mean.
# [3] = Solubility (2% DMSO/PBS); format: physicochemical; conditions: aqueous buffer, kinetic from dmso stock
# [4] = Colony survival, ola with or without RTX-161 (source data sheet Fig. 2 c; cell line not given); format: cell-based; conditions: ola 0.125 um, RTX-161 0 uM
# [5] = Colony survival, ola with or without RTX-161 (source data sheet Fig. 2 b; cell line not given); format: cell-based; conditions: vehicle
# [6] = tested on: CAPAN-1 cells; experiment: Clonogenic assay; format: cell-based; conditions: Capan-1 cells, vehicle
# Procedure: (§1) Cells were plated on six or twelve or twenty-four well plates. In six well plate, 1000 cells/ well of BRCA2 -/-, BRCA1 -/-, PALB2 mut and 500 cells/ well of wildtype pair was plated; In twelve well plate, 600 cells/ well of BRCA2 -/-, BRCA1 -/-, PALB2 mut and 400 cells/ well of wildtype pair was plated; In twenty-four well plate, 500 cells/ well of BRCA2 -/-, BRCA1 -/-, PALB2 mut and 300 cells/ well of wildtype pair was plated. For MEFs, 300 cells per well in six-well plate were seeded. The medium was replaced every 2 days until the colonies were ready for staining in 10–12 days. For staining: Medium was removed from plates, and cells were rinsed with PBS. Fixation was carried out with—Water: Ethanol: Acetic acid (5:4:1) for 30 min followed by staining of colonies with 0.5% crystal violet in Water: Ethanol (3:2) for 2 h at room temperature. The plates were rinsed with water and left for drying overnight at room temperature. Colonies were then counted and IC50 was calculated using results from 3 or more independent experiments. Response curves are shown as mean colony formation +/- S.E.M.
# (§2) Data are expressed as mean ± SEM from at least 3 independent experiments with triplicates for each condition unless stated otherwise. When conducting comparison between two groups, two-tailed unpaired t-test was used. Significance was assumed at p < 0.05. Asterisks in the figures indicate significance, ^∗p < 0.05, ^∗∗p < 0.01, ^∗∗∗p < 0.001. Combenefit® software version 2.021 was used to perform synergy analyses for drug combinations between RTx-161 and PARPi. GraphPad Prism 9 software was used to calculate IC50.
# [7] = tested on: VC8 cells; experiment: Clonogenic assay; format: cell-based, Chinese hamster; conditions: VC8 cells, vehicle
# Procedure: as §1, §2
# [8] = target: T2, PolθΔL (Polθ-pol, five loops replaced); experiment: X-ray crystallography, 3.24 Å; RTx-152, ddGTP, Mg2+; closed conformation; Endonuclease protection buffer not in the material; crystals: 0.24 M Na citrate, 18% PEG 3350, 0.1 M Bis Tris propane pH 7.5, with 1 mM MgCl2, 1 mM ddGTP, 20 mM spermine in the complex mix; conditions: protein: recombinant; tags: 6xHis-SUMO removed with PreScission protease; 5' overhang 10 nt on template; 14 bp duplex
# [9] = target: T3, Polθ-pol; experiment: EcoRI endonuclease protection with unlabeled DNA trap; RTx-161, ddCTP; cleavage suppressed >10 min; Endonuclease protection buffer not in the material; crystals: 0.24 M Na citrate, 18% PEG 3350, 0.1 M Bis Tris propane pH 7.5, with 1 mM MgCl2, 1 mM ddGTP, 20 mM spermine in the complex mix; conditions: protein: recombinant; label: 32P (5'); 5' overhang 12 nt on template; 14 bp duplex
# [10] = target: Fl-Polθ (UniProt O75417 1-2590); experiment: EcoRI endonuclease protection with unlabeled DNA trap; RTx-152, ddCTP; i+1 complex fully resistant; Endonuclease protection buffer not in the material; crystals: 0.24 M Na citrate, 18% PEG 3350, 0.1 M Bis Tris propane pH 7.5, with 1 mM MgCl2, 1 mM ddGTP, 20 mM spermine in the complex mix; conditions: protein: recombinant; label: 32P (5'); 5' overhang 12 nt on template; 14 bp duplex
molecule,measurement,setting,value
CN(C(=O)Oc1c(Cl)cc(Cl)c2cccnc12)c1ccccc1 [MC280003],half-life,[1],1.5 min
same,IC50,[2],160 nM
same,solubility,[3],21 µM
O=C(c1cc(Cc2n[nH]c(=O)c3ccccc23)ccc1F)N1CCN(C(=O)C2CC2)CC1 [ola],percent suvival,[4],53.6122% and 69.9422% and 40.4494%
same,percent suvival,[5]; ola 7.9 nano M,85.0909% and 53.0303% and 63.9535%
same,percent suvival,[5]; ola 11.8 nano M,61.0909%
same,percent suvival,[5]; ola 17.70 nano M,49.2424% and 44.186% and 51.6364%
same,percent suvival,[5]; ola 26.60 nano M,49.0909%
same,percent suvival,[5]; ola 40.00 nano M,44.7273% and 28.7879% and 31.9767%
same,percent suvival,[5]; ola 60.00 nano M,38.5455%
same,percent suvival,[5]; ola 90.00 nano M,15.1515% and 16.8605% and 24.3636%
same,percent suvival,"[6]; ola 0.041 micro M, experiment block 1 (c0-c9)",35.7622%
same,percent suvival,"[6]; ola 0.041 micro M, experiment block 2 (c10-c19)",95.0051%
same,percent suvival,"[6]; ola 0.041 micro M, experiment block 3 (c20-c29)",99.322%
same,percent suvival,"[6]; ola 0.123 micro M, experiment block 1 (c0-c9)",20.5479%
same,percent suvival,"[6]; ola 0.123 micro M, experiment block 2 (c10-c19)",86.264%
same,percent suvival,"[6]; ola 0.123 micro M, experiment block 3 (c20-c29)",101.808%
same,percent suvival,"[6]; ola 0.37 micro M, experiment block 1 (c0-c9)",15.0785%
same,percent suvival,"[6]; ola 0.37 micro M, experiment block 2 (c10-c19)",58.3758%
same,percent suvival,"[6]; ola 0.37 micro M, experiment block 3 (c20-c29)",61.807%
same,percent suvival,"[6]; ola 1.11 micro M, experiment block 1 (c0-c9)",13.2577%
same,percent suvival,"[6]; ola 1.11 micro M, experiment block 2 (c10-c19)",54.2134%
same,percent suvival,"[6]; ola 1.11 micro M, experiment block 3 (c20-c29)",43.0496%
same,percent suvival,[7]; ola 1.875 nano M,82.1918% and 93.3333% and 61.7978%
same,percent suvival,[7]; ola 30.00 nano M,0%
crystallization primer-template (dsDNA) DNA 1: CGACGTCGCAGCGC DNA 2: GCGAGACTCCGCGCTGCGACGTCG,binding result,[8],binds
LM3-EcoRI/LM4-EcoRI primer-template (dsDNA) DNA 1: CGGCGAATTCGCAG DNA 2: AGTAAGAGAACGCTGCGAATTCGCCG,binding result,[9],binds
same,binding result,[10],binds
